From publication PMC7311426, “An amphipathic peptide with antibiotic activity against multidrug-resistant Gram-negative bacteria” (Nature Communications, 2020)
Like-named read-outs stand apart in the source and are kept apart here. Residues, ends and D or L forms follow the SMILES beside them.

Legend:
E. coli = E. coli MDR/ESBL; after 20 passages + 3 drug-free passages
[1] = system: human erythrocytes (HRBC); type: cell-based
in vivo [2] = settings: mouse, ip, Cross species PK, concentration (Fig 6 source data)
C. neoformans = assay: microbe, parasite or virus in culture
C. albicans = assay: microbe, parasite or virus in culture
[3] = Dose range finding & MTD iv toxicity
[4] = 7-day DRF inhalation toxicity; settings: for AUC(0-t) / Cmax: Mouse inhalation, TK dose 20 mg/kg
in vivo [5] = settings: both, mouse, plasma, inhaled or intranasal; for AUC(0-t) / Cmax: Plasma, mice
E. coli DSA 443 ESBL [6] = assay: Murine urinary tract infection (UTI) model; type: in vivo, E. coli in OF-1 mice; settings: for Day 3 Bladder, Mean Diff. Vehicle vs. Meropenem 40 mg/kg / Day 3 Urine, Mean Diff. Vehicle vs. Meropenem 40 mg/kg: Dunnett's multiple comparisons test; for Day 3 Urine, Mean 2 (group mean) / Mean Diff., Vehicle vs. treated / Mean 2 (group mean bacterial count): Meropenem 40 mg/kg; for Day 3 Urine, Mean 2 (group mean): n2 = 8; for Mean Diff., Vehicle vs. treated / Mean 2 (group mean bacterial count): UTI model, Day 3 Kidneys
E. coli DSA 443 ESBL [7] = assay: Murine urinary tract infection (UTI) model; type: in vivo, E. coli in OF-1 mice; settings: Prism column statistics
Procedure: Peritonitis and UTI murine models were performed at the Department of Microbiology & Infection Control, Statens Serum Institute, Copenhagen, Denmark, under approval by the National Committee of Animal Ethics, Denmark, and adhered to the standards of EU Directive 2010/63/EU. The mouse pneumonia model was performed by Evotec Ltd, United Kingdom, under UK Home Office Licenses and with local ethical committee clearance. All animal studies were contracted by Adenium Biotech ApS.
Peptides were prepared in Ringer’s acetate pH 6.0 (vehicle) at 34 mg mL^−1. Comparator antibiotics included meropenem (Meronem®, AstraZeneca), polymyxin B sulfate (Sigma) and tobramycin (Novartis).
The E. coli UTI in vivo model was prepared using an E. coli DSA 443 ESBL strain, in neutropenic outbred OF-1 female mice (Charles River, France). Starting 4 days before inoculation mice were given drinking water with 5% glucose. On day 0 mice were anaesthetized and inoculated with 50 μL bacterial suspension (1 × 10^9 CFU mL^−1) of E. coli DSA 443 ESBL, via a catheter in the urethra into the bladder. On days 1 and 2, mice were treated i.v. with vehicle (n = 18) or with twice-daily administrations of 5 mg kg^−1 AA139 (n = 12) or 40 mg kg^−1 meropenem (n = 12). Urine samples were taken on days 1–3 and on day 3 mice were killed and urine, kidneys, and bladder were collected for CFU counts on agar.

[8] = cynomolgus monkey, in vivo, iv, 20 mg/kg
[9] = 5 mg kg-1/day, Day 1, 5 mg kg-1/day, 2 hour daily inhalation
[10] = 5 mg kg-1/day, Day 7, 5 mg kg-1/day, inhalation
[11] = 40 mg kg-1/day, Day 1, 40 mg kg-1/day, inhalation

SMILES: CC(C)[C@@H]1NC(=O)[C@H](Cc2ccc(O)cc2)NC(=O)[C@H](Cc2c[nH]c3ccccc23)NC(=O)[C@@H](NC(=O)[C@H](Cc2ccccc2)NC(=O)CN)CSSC[C@@H](C(=O)N[C@@H](CC(N)=O)C(=O)O)NC(=O)[C@H](CCCNC(=N)N)NC(=O)[C@H](CCCNC(=N)N)NC(=O)[C@H](Cc2ccc(O)cc2)NC(=O)[C@@H]2CSSC[C@H](NC1=O)C(=O)N[C@@H](C)C(=O)N[C@@H](CCCNC(=N)N)C(=O)N[C@@H](CCCNC(=N)N)C(=O)N[C@@H](CC(N)=O)C(=O)NCC(=O)N[C@@H](C)C(=O)N[C@@H](CCCNC(=N)N)C(=O)N[C@@H](C(C)C)C(=O)N2 [AA139] (HELM PEPTIDE1{G.F.C.W.Y.V.C.A.R.R.N.G.A.R.V.C.Y.R.R.C.N}$PEPTIDE1,PEPTIDE1,3:R3-20:R3|PEPTIDE1,PEPTIDE1,7:R3-16:R3$$$V2.0)
- Final MIC (E. coli): 1 µg/mL
- Heamolysis HC10, Mean [1]: >300 µg/mL
- Heamolysis HC10 ([1]; red cells of human, 3 h): >300 µg/mL
- level at 1 h (in vivo [2]; replicate 1): 5200 ng/mL
- level at 1 h (in vivo [2]; replicate 2): 5250 ng/mL
- level at 1 h (in vivo [2]; replicate 3): 5230 ng/mL
- level at 2 h (in vivo [2]; replicate 1): 4240 ng/mL
- level at 2 h (in vivo [2]; replicate 2): 4550 ng/mL
- level at 2 h (in vivo [2]; replicate 3): 4140 ng/mL
- level at 4 h (in vivo [2]; replicate 1): 1820 ng/mL
- level at 4 h (in vivo [2]; replicate 2): 1560 ng/mL
- level at 4 h (in vivo [2]; replicate 3): 1370 ng/mL
- level at 8 h (in vivo [2]; replicate 1): 570 ng/mL
- level at 8 h (in vivo [2]; replicate 2): 472 ng/mL
- level at 8 h (in vivo [2]; replicate 3): 682 ng/mL
- BMD MIC (C. neoformans): 1 µg/mL
- MIC against Cryptococcus neoformans (C. neoformans): 1 to 4 µg/mL
- BMD MIC (C. albicans): ≥32 µg/mL
- BMD MIC (C. albicans; 24 h): 64 µg/mL
- AUC(0-inf) [3, 8]: 80300 ng·h/mL
- Cmax [3, 8]: 15800 ng/mL
- NOAEL in monkeys ([3]; i.v. over 2 h QD or BID): 15 mg kg^−1 per day
- AUC(0-t) ([4]; Day 1 ELF): 39800 ng·h/mL
- Cmax ([4]; Day 1 ELF): 8200 ng/mL
- AUC(0-t) ([4]; Day 7 ELF): 137000 ng·h/mL
- Cmax ([4]; Day 7 ELF): 42400 ng/mL
- NOAEL in mice, aerosol inhalation ([4]; aerosol inhalation over 7 days): 20 mg kg^−1 per day
- NOAEL at 168 h ([4]; mouse, in vivo, inhaled or intranasal): 20 mg/kg
- AUC(0-t) ([4]; mouse, plasma, inhaled or intranasal, 20 mg/kg, AUC 0-t, Day 1 Plasma): 2600 ng·h/mL
- AUC(0-t) ([4]; mouse, plasma, inhaled or intranasal, 20 mg/kg, AUC 0-t, Day 7 Plasma): 1400 ng·h/mL
- Cmax ([4]; mouse, plasma, inhaled or intranasal, 20 mg/kg, Cmax, Day 1 Plasma): 950 ng/mL
- Cmax ([4]; mouse, plasma, inhaled or intranasal, 20 mg/kg, Cmax, Day 7 Plasma): 470 ng/mL
- Tmax (in vivo [5]; 5 mg kg-1/day): 18 min
- AUC(0-t) (in vivo [5]; [9]): 262 ng·h/mL
- AUC(0-t) (in vivo [5]; [10]): 85 ng·h/mL
- Cmax (in vivo [5]; [9]): 122 ng/mL
- Cmax (in vivo [5]; [10]): 64 ng/mL
- Tmax (in vivo [5]; 20 mg kg-1/day): 18 min
- Cmax (in vivo [5]; 20 mg kg-1/day, Day 1, 20 mg kg-1/day, inhalation): 952 ng/mL
- Cmax (in vivo [5]; 20 mg kg-1/day, Day 7, 20 mg kg-1/day, inhalation): 467 ng/mL
- Tmax (in vivo [5]; 40 mg kg-1/day): 18 min
- AUC(0-t) (in vivo [5]; [11]): 4540 ng·h/mL
- Cmax (in vivo [5]; [11]): 2460 ng/mL

SMILES: C[C@@H](O)[C@H]1C(=O)N2C(C(=O)O)=C(S[C@@H]3CN[C@H](C(=O)N(C)C)C3)[C@H](C)[C@H]12 [Meropenem, meropenem, reference compound]
- Day 3 Bladder, Mean Diff. Vehicle vs. Meropenem 40 mg/kg (E. coli DSA 443 ESBL [6]; Arenicin-3 study): 2.654
- Day 3 Urine, Mean Diff. Vehicle vs. Meropenem 40 mg/kg (E. coli DSA 443 ESBL [6]; Arenicin-3 study): 5.07
- DAY 3 BLADDER, Mean (E. coli DSA 443 ESBL [6]; ESBL E. coli DSA 443, Meropenem 40 mg kg-1, bladder, day 3, Prism column statistics, mean of n = 12): 3.523
- Day 3 Urine, Mean 2 (group mean) (E. coli DSA 443 ESBL [6]; Arenicin-3 study): 1.314
- Day 3 Urine, Mean 2 (group mean) (E. coli DSA 443 ESBL [6]; NZ17143 study): 1.812
- Day 3 Urine, Mean 2 (group mean) (E. coli DSA 443 ESBL [6]; NZ17211 study): 1.325
- Day 3 Bladder, Mean Diff. Vehicle vs. Meropenem 40 mg/kg (E. coli DSA 443 ESBL [6]; NZ17143 study): 2.624
- Day 3 Urine, Mean Diff. Vehicle vs. Meropenem 40 mg/kg (E. coli DSA 443 ESBL [6]; NZ17143 study): 4.004
- Day 3 Bladder, Mean Diff. Vehicle vs. Meropenem 40 mg/kg (E. coli DSA 443 ESBL [6]; NZ17211 study): 4.176
- Day 3 Urine, Mean Diff. Vehicle vs. Meropenem 40 mg/kg (E. coli DSA 443 ESBL [6]; NZ17211 study): 5.546
- Mean Diff., Vehicle vs. treated (E. coli DSA 443 ESBL [6]; Arenicin-3 experiment): 0.4699
- Mean Diff., Vehicle vs. treated (E. coli DSA 443 ESBL [6]; NZ17143 experiment): 0.6355
- Mean Diff., Vehicle vs. treated (E. coli DSA 443 ESBL [6]; NZ17211 experiment): 0.1396
- Mean 2 (group mean bacterial count) (E. coli DSA 443 ESBL [6]; comparator arm of Arenicin-3 experiment): 2.023
- Mean 2 (group mean bacterial count) (E. coli DSA 443 ESBL [6]; comparator arm of NZ17143 experiment): 1.446
- Mean 2 (group mean bacterial count) (E. coli DSA 443 ESBL [6]; comparator arm of NZ17211 experiment): 2.631
- DAY 3 BLADDER, Median (E. coli DSA 443 ESBL [7]; ESBL E. coli DSA 443, Meropenem 40 mg kg-1, bladder, median of n = 12): 3.32
- DAY 3 KIDNEY, Mean (E. coli DSA 443 ESBL [7]; ESBL E. coli DSA 443, Meropenem 40 mg kg-1, kidney, mean of n = 12): 1.644
- DAY 3 KIDNEY, Median (E. coli DSA 443 ESBL [7]; ESBL E. coli DSA 443, Meropenem 40 mg kg-1, kidney, median of n = 12): 1.4
- DAY 3 URINE, Mean (E. coli DSA 443 ESBL [7]; ESBL E. coli DSA 443, Meropenem 40 mg kg-1, urine, mean of n = 11): 1.229
- DAY 3 URINE, Median (E. coli DSA 443 ESBL [7]; ESBL E. coli DSA 443, Meropenem 40 mg kg-1, urine, median of n = 11): 1
